This is an account of results in patent US5346910A (priority 1992, dated 1994).

The target in experiment [1] is muscarinic cholinergic receptor (rat brain cerebral cortex homogenate). It counts as binding. To be noted: 0.25 nM 3H-QNB, 25° C., 120 minutes.
For experiment [2], the target named is high affinity agonist conformation of the muscarinic cholinergic receptor (rat brain cerebral cortex homogenate). Put plainly: [3H]-Cis-methyldioxolane (3H-CD) binding assay (high affinity). To be noted: 1.0 nM 3H-CD, 25° C., 120 minutes.
In experiment [3] the test system is SDAT patients. The settings on record: compared to physostigmine; cited from earlier work.
Experiment [4] deals with aged monkey. To be noted: aged monkeys; cited from earlier work.

Broadly, the Ki is a measure of affinity in units of concentration, obtained from inhibition or displacement. For the compound `CN(C)CC#CCN1C(=O)C=CC1=O` [1-[4-(Dimethylamino)-2-butynyl]-1H-pyrrole-2,5-dione], the Ki in experiment [1] stood at 1740 nM; in experiment [2], 1480 nM. On to `CSC1CC(=O)N(CC#CCN(C)C)C1=O` (centres unmarked) [1-[4-(Dimethylamino)-2-butynyl]-3-(methylthio)-2,5-pyrrolidinedione], for which the Ki in experiment [1] is greater than 100000 nM; in experiment [2] it was 1600 nM.

For the compound `CC1=CC(=O)N(CC#CCN(C)C)C1=O` [1-[4-(Dimethylamino)-2-butynyl]-3-methyl-1H-pyrrole-2,5-dione], the figures for the Ki in experiment [1] and in experiment [2] were 1400 nM and 3400 nM, respectively. Consider `CSC1CC(=O)N(CC#CCN2CCCC2)C1=O` (centres unmarked) [3-(Methylthio)-1-[4-(1-pyrrolidinyl)-2-butynyl]-2,5-pyrrolidinedione], for which the Ki worked out at 2200 nM in experiment [1] and 1780 nM in experiment [2].

On to `CC1=CC(=O)N(CC#CCN2CCCC2)C1=O` [3-Methyl-1-[4-(1-pyrrolidinyl)-2-butynyl]-1H-pyrrole-2,5-dione], for which the Ki was found to be 200 nM in experiment [1] and 530 nM in experiment [2]. For `C[N+](C)(C)CC#CCN1C(=O)C=CC1=O` [4-(2,5-Dihydro-2,5-dioxo-1H-pyrrol-1-yl)-N,N,N-trimethyl-2-butyne-1-aminium iodide], in that order: 11000 nM and 290 nM. On the same counts, the results for `CC1=CC(=O)N(CC#CC[N+](C)(C)C)C1=O` [4-(2,5-Dihydro-3-methyl-2,5-dioxo-1H-pyrrol-1-yl)-N,N,N-trimethyl-2-butyne-1-aminium iodide] are 2300 nM and 560 nM. In the case of `COC(=O)C1=CCCN(C)C1` [arecoline], the “improvement in SDAT patients” value in experiment [3] was “more consistent improvement”. The “performance in aged monkey model of SDAT” value in experiment [4] was “significant improvement in performance”. On to `O=C1CCCN1CC#CCN1CCCC1` [oxotremorine], for which, in experiment [4], the “performance in aged monkey model of SDAT” value is recorded as “significant improvement in performance”.
